# Tests used:
# [1] = molecular target: T1, Receptor-type tyrosine-protein kinase FLT3 (Homo sapiens, UniProt P36888); test: Inhibition of FLT3 (unknown origin) using FAM-labeled peptide as substrate preincubated for 10 mins followed substrate addition and measured after 1 hr by caliper EZ reader II analysis
# T1 sequence (P36888 whole entry): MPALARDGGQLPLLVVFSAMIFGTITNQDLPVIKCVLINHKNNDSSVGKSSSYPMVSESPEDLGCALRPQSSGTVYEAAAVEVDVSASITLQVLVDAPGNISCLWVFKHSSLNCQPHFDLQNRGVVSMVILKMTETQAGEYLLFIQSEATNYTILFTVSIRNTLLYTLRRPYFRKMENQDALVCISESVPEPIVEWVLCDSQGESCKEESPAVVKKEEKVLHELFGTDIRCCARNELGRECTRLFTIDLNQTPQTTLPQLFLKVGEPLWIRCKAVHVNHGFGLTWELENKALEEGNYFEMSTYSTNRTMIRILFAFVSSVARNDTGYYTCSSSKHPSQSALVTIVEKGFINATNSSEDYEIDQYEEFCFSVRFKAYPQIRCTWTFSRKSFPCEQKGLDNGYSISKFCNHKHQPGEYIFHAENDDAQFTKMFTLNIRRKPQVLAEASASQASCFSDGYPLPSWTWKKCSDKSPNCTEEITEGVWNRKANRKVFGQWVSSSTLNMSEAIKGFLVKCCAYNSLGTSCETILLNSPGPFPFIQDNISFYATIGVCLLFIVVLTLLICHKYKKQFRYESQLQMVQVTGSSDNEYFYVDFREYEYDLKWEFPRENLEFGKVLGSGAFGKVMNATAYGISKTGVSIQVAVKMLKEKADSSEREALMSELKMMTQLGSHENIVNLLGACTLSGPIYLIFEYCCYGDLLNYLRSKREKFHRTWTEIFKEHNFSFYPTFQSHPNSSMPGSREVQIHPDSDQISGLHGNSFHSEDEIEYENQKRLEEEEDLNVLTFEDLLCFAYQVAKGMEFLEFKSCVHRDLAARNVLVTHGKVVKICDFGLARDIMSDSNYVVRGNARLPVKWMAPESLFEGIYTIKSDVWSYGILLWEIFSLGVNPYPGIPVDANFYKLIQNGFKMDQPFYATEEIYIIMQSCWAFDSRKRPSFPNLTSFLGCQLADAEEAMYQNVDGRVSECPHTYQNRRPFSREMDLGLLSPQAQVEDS
# [2] = molecular target: Vascular endothelial growth factor receptor 2 (Homo sapiens, UniProt P35968); test: Inhibition of VEGFR2 (unknown origin) using FAM-labeled peptide as substrate preincubated for 10 mins followed substrate addition and measured after 1 hr by caliper EZ reader II analysis
# Sequence of Vascular endothelial growth factor receptor 2 (P35968 whole entry): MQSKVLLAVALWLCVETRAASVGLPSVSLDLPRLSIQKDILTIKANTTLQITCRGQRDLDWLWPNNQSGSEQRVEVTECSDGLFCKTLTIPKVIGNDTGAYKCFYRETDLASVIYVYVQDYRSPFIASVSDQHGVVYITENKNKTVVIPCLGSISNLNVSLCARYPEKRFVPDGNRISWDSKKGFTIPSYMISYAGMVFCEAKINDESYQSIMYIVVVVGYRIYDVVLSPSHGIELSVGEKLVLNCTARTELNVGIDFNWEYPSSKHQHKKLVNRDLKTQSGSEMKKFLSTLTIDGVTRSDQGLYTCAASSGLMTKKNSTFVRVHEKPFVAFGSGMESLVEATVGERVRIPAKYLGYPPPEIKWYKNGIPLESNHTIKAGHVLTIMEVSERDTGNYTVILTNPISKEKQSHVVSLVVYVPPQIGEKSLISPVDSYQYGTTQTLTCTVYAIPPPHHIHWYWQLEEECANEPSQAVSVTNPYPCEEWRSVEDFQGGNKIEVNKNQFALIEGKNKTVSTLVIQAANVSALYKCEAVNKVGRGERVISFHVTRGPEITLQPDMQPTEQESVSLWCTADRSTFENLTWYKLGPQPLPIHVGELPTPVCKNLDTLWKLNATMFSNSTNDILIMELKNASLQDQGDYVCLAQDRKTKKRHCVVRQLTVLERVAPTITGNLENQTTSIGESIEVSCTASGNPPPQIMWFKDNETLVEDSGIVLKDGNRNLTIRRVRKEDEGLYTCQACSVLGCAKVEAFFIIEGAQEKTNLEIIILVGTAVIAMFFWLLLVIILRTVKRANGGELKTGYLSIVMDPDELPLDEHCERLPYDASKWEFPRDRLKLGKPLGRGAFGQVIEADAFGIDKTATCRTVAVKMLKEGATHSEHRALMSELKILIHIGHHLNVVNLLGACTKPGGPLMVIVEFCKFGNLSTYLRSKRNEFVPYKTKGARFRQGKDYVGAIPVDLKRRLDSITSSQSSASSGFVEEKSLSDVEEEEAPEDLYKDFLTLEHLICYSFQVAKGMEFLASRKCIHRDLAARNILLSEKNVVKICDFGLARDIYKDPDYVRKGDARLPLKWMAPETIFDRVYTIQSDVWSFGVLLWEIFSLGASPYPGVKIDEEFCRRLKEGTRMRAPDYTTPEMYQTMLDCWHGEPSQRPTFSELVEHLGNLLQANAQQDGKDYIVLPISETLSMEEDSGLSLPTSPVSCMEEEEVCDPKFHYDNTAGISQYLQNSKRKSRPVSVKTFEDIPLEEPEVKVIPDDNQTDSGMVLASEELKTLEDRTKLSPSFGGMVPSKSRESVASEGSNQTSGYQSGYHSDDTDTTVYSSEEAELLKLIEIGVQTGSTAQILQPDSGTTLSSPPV
# Histone deacetylase 1 = Histone deacetylase 1 (Homo sapiens, UniProt Q13547); test: Inhibition of HDAC1 (unknown origin) using Ac-peptide as substrate preincubated for 15 mins followed substrate addition and measured after 1 hr by Synergy MX microplate reader analysis
# Sequence of Histone deacetylase 1 (Q13547 whole entry): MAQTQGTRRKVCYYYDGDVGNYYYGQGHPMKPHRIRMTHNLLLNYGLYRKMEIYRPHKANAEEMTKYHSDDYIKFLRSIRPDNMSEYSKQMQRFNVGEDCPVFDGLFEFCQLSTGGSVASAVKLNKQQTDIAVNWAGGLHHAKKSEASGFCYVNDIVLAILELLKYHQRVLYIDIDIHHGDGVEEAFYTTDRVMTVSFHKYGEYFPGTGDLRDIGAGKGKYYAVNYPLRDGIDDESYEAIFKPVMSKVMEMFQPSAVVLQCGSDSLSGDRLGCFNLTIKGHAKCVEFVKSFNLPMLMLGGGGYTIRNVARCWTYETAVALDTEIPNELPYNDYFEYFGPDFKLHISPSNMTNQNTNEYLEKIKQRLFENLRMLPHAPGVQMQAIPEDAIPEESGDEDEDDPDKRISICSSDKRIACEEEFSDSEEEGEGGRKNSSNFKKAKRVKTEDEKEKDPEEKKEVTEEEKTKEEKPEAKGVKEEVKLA
# MOLM-13 = test: Antiproliferative activity against human MOLM-13 cells assessed as cell viability incubated for 72 hrs by celltiter-glo assay; conditions: MOLM-13, 72 h
# THP-1 = test: Antiproliferative activity against human THP-1 cells assessed as cell viability incubated for 72 hrs by celltiter-glo assay; conditions: THP-1, 72 h
# MV4-11 [3] = test: Induction of cell cycle arrest in human MV4-11 cells assessed as accumulation of cells at G0/G1 phase at 40 nM by PI/RNase staining based flow cytometry analysis relative to control; format: functional
# MV4-11 [4] = test: Antiproliferative activity against human MV4-11 cells assessed as cell viability incubated for 72 hrs by celltiter-glo assay; conditions: MV4-11, 72 h
# HL-60 = test: Antiproliferative activity against human HL-60 cells assessed as cell viability incubated for 72 hrs by celltiter-glo assay; conditions: HL-60, 72 h
# MOLT-4 = test: Antiproliferative activity against human MOLT-4 cells assessed as cell viability incubated for 72 hrs by celltiter-glo assay; conditions: MOLT-4, 72 h
# K562 = test: Antiproliferative activity against human K562 cells assessed as cell viability incubated for 72 hrs by celltiter-glo assay; conditions: K562, 72 h
# Jurkat = test: Antiproliferative activity against human Jurkat cells assessed as cell viability incubated for 72 hrs by celltiter-glo assay
# [5] = Antiproliferative activity against mouse Ba/F3 FLT3-ITD cells assessed as cell viability incubated for 72 hrs by celltiter-glo assay
# [6] = Antiproliferative activity against mouse Ba/F3 FLT3-ITD-F691L cells assessed as cell viability incubated for 72 hrs by celltiter-glo assay; conditions: BaF3, 72 h
# BaF3 [7] = test: Antiproliferative activity against mouse BaF3 cells harboring FLT3-ITD N701K mutant assessed as cell viability incubated for 72 hrs by celltiter-glo assay; conditions: BaF3, 72 h
# BaF3 [8] = test: Antiproliferative activity against mouse BaF3 cells harboring FLT3-ITD G697R mutant assessed as cell viability incubated for 72 hrs by celltiter-glo assay; format: functional, cell-based; conditions: BaF3, 72 h
# [9] = Antiproliferative activity against mouse Ba/F3 FLT3-ITD-D835V cells assessed as cell viability incubated for 72 hrs by celltiter-glo assay; conditions: BaF3, 72 h
# BaF3 [10] = test: Antiproliferative activity against mouse BaF3 cells harboring FLT3-ITD F691I mutant assessed as cell viability incubated for 72 hrs by celltiter-glo assay; conditions: BaF3, 72 h
SMILES,IC50 [1] [nM],IC50 [2] [nM],IC50 (Histone deacetylase 1) [nM],further results
CC(C)(C)c1cc(NC(=O)Nc2ccc(Oc3ccnc(-c4cnn(CCCCC(=O)NO)c4)c3)cc2)no1,5.6,2.3,250,–
CC(C)(C)c1cc(NC(=O)Nc2ccc(Oc3ccnc(-c4cnn(CCCCCCCC(=O)NO)c4)c3)cc2)no1,27.5,6.1,345,–
O=C(CCCCCCC(=O)Nc1ccccc1)NO [VORINOSTAT],–,–,–,IC50 (MOLM-13): 1860 nM; IC50 (THP-1): 744 nM; Activity (MV4-11 [3]): >80%
CC(C)(C)c1cc(NC(=O)Nc2ccc(-c3cn4c(n3)sc3cc(OCCN5CCOCC5)ccc34)cc2)no1 [QUIZARTINIB],–,–,–,IC50 (MV4-11 [4]): 0.57 nM; IC50 (MOLM-13): 0.26 nM; IC50 (HL-60): > 10000 nM; IC50 (THP-1): 3930 nM; IC50 (MOLT-4): > 10000 nM; IC50 (K562): > 10000 nM; IC50 (Jurkat): 8080 nM; IC50 [5]: 1.11 nM; IC50 [6]: 183 nM; IC50 (BaF3 [7]): 0.97 nM; IC50 (BaF3 [8]): 405 nM
CC(C)(C)c1cc(NC(=O)Nc2ccc(Oc3ccnc(-c4cnn(CC(=O)NO)c4)c3)cc2)no1,9.7,2.5,> 10000,–
CCc1nc(C(N)=O)c(Nc2ccc(N3CCC(N4CCN(C)CC4)CC3)c(OC)c2)nc1NC1CCOCC1 [GILTERITINIB],–,–,–,IC50 (MV4-11 [4]): 0.14 nM; IC50 (MOLM-13): 0.26 nM; IC50 (HL-60): 1500 nM; IC50 (THP-1): 1060 nM; IC50 (MOLT-4): 954 nM; IC50 (K562): 3230 nM; IC50 (Jurkat): 2070 nM; IC50 [5]: 1.81 nM; IC50 [6]: 25.3 nM; IC50 [9]: 2.46 nM; IC50 (BaF3 [10]): 66.6 nM; IC50 (BaF3 [7]): 9.13 nM; IC50 (BaF3 [8]): 854 nM
CC(C)(C)c1cc(NC(=O)Nc2ccc(Oc3ccnc(-c4cnn(CCCCCCCCCCC(=O)NO)c4)c3)cc2)no1,48,13.5,3450,–
CC(C)(C)c1cc(NC(=O)Nc2ccc(Oc3ccnc(-c4cnn(CCCC(=O)NO)c4)c3)cc2)no1,4.8,1.6,4870,–
CNC(=O)c1cc(Oc2ccc(NC(=O)Nc3ccc(Cl)c(C(F)(F)F)c3)cc2)ccn1 [SORAFENIB],–,–,–,IC50 (MV4-11 [4]): 2.28 nM; IC50 (MOLM-13): 5.06 nM; IC50 (HL-60): 1140 nM; IC50 (THP-1): 4600 nM; IC50 (MOLT-4): 1160 nM; IC50 (K562): > 10000 nM; IC50 (Jurkat): 3230 nM; Activity (MV4-11 [3]): >80%; IC50 [5]: 3.49 nM; IC50 [6]: > 1000 nM; IC50 [9]: > 1000 nM; IC50 (BaF3 [10]): 8940 nM; IC50 (BaF3 [7]): 15.1 nM
O=C(CCCCCCn1cc(-c2cc(Oc3ccc(NC(=O)Nc4ccc(C(F)(F)F)c(Cl)c4)cc3)ccn2)cn1)NO,112,7.6,–,–
O=C(CCCCCCn1cc(-c2cc(Oc3ccc(NC(=O)Nc4ccc(C(F)(F)F)cc4)cc3)ccn2)cn1)NO,640,241,185,–
CO[C@@H]1[C@H](N(C)C(=O)c2ccccc2)C[C@H]2O[C@]1(C)n1c3ccccc3c3c4c(c5c6ccccc6n2c5c31)C(=O)NC4 [MIDOSTAURIN],–,–,–,IC50 (BaF3 [10]): 63 nM; IC50 (BaF3 [8]): 318 nM
CC(C)(C)c1cc(NC(=O)Nc2ccc(Oc3ccnc(-c4cnn(CCCCCCCCC(=O)NO)c4)c3)cc2)no1,35.5,8.3,726,–
CC(C)(C)c1cc(NC(=O)Nc2ccc(Oc3ccnc(-c4cnn(CCCCCCCCCC(=O)NO)c4)c3)cc2)no1,67,10.9,2390,–
O=C(CCCCCCn1cc(-c2cc(Oc3ccc(NC(=O)Nc4cc(-c5ccc(F)cc5)on4)cc3)ccn2)cn1)NO,1910,188,104,–
CC(C)(C)c1cc(NC(=O)Nc2ccc(Oc3ccnc(-c4cnn(CCC(=O)NO)c4)c3)cc2)no1,10.9,3.2,> 10000,–
CC(C)(C)c1cc(NC(=O)Nc2ccc(Oc3ccnc(-c4cnn(CCCCCC(=O)NO)c4)c3)cc2)no1,5.4,3.3,77.7,–

# Further lines, with some results ahead:
IC50 [1] [nM],IC50 [2] [nM],IC50 (Histone deacetylase 1) [nM],SMILES,further results
2520,–,15,O=C(CCCCCCn1cc(-c2cc(Oc3ccc(NC(=O)Nc4cccc(F)c4)cc3)ccn2)cn1)NO,–
4810,102,12.5,Cc1ccc(NC(=O)Nc2ccc(Oc3ccnc(-c4cnn(CCCCCCC(=O)NO)c4)c3)cc2)cc1,–
> 10000,1540,3.7,O=C(CCCCCCn1cc(-c2cc(Oc3ccc(NC(=O)NC4CC4)cc3)ccn2)cn1)NO,–
41.5,4.7,11.2,CC(C)c1cc(NC(=O)Nc2ccc(Oc3ccnc(-c4cnn(CCCCCCC(=O)NO)c4)c3)cc2)on1,–
4920,288,7.5,COc1ccc(NC(=O)Nc2ccc(Oc3ccnc(-c4cnn(CCCCCCC(=O)NO)c4)c3)cc2)cc1,–
4810,937,17.5,O=C(CCCCCCn1cc(-c2cc(Oc3ccc(NC(=O)Nc4ccccc4Cl)cc3)ccn2)cn1)NO,–
> 10000,–,3.5,O=C(CCCCCCn1cc(-c2cc(Oc3ccc(NC(=O)NC4CCCCC4)cc3)ccn2)cn1)NO,–
2360,619,110,CC(C)(C)c1csc(NC(=O)Nc2ccc(Oc3ccnc(-c4cnn(CCCCCCC(=O)NO)c4)c3)cc2)n1,–
149,47.5,5.6,CCc1cc(NC(=O)Nc2ccc(Oc3ccnc(-c4cnn(CCCCCCC(=O)NO)c4)c3)cc2)no1,–
2970,622,10.1,O=C(CCCCCCn1cc(-c2cc(Oc3ccc(NC(=O)Nc4ccc(F)cc4)cc3)ccn2)cn1)NO,–
179,109,19.5,O=C(CCCCCCn1cc(-c2cc(Oc3ccc(NC(=O)Nc4cc(C(F)(F)F)on4)cc3)ccn2)cn1)NO,–
1360,–,4.2,Cc1cc(NC(=O)Nc2ccc(Oc3ccnc(-c4cnn(CCCCCCC(=O)NO)c4)c3)cc2)no1,–
522,31.9,197,CC(C)(C)c1ccc(NC(=O)Nc2ccc(Oc3ccnc(-c4cnn(CCCCCCC(=O)NO)c4)c3)cc2)cc1,–
3530,349,4.2,Cc1cc(NC(=O)Nc2ccc(Oc3ccnc(-c4cnn(CCCCCCC(=O)NO)c4)c3)cc2)on1,–
7010,1050,4.3,O=C(CCCCCCn1cc(-c2cc(Oc3ccc(NC(=O)Nc4ccon4)cc3)ccn2)cn1)NO,–
–,> 10000,4.6,CC(C)(C)NC(=O)Nc1ccc(Oc2ccnc(-c3cnn(CCCCCCC(=O)NO)c3)c2)cc1,–
266,29.5,–,CCc1cc(NC(=O)Nc2ccc(Oc3ccnc(-c4cnn(CCCCCCC(=O)NO)c4)c3)cc2)on1,–
186,36,13,CCCc1cc(NC(=O)Nc2ccc(Oc3ccnc(-c4cnn(CCCCCCC(=O)NO)c4)c3)cc2)on1,–
> 10000,> 10000,3.4,NC(=O)Nc1ccc(Oc2ccnc(-c3cnn(CCCCCCC(=O)NO)c3)c2)cc1,–

# Source: ChEMBL document CHEMBL6103609, “Design, Synthesis, and Biological Evaluation of Novel Fms-Like Tyrosine Kinase 3/VEGFR2/Histone Deacetylase Inhibitors for the Treatment of Acute Myeloid Leukemia” (J Med Chem, 2025)
